Here are results for four compounds from US7271154B2, “Antibiotic conjugates” (Merckle GmbH, priority 2002, dated 2007).

For data set [1] the following is noted: compared with erythromycin; cited from earlier work.
A further data set concerns PMN. Put plainly: Antimicrobial agent uptake by PMN (bioassay). It counts as in vitro ADME. Conditions: intracellular/extracellular concentration, 1 h.

Regarding `CC[C@H]1OC(=O)[C@H](C)[C@@H](O[C@H]2C[C@@](C)(OC)[C@@H](O)[C@H](C)O2)[C@H](C)[C@@H](O[C@@H]2O[C@H](C)C[C@H](N(C)C)[C@H]2O)[C@](C)(O)C[C@@H](C)CN(C)[C@H](C)[C@@H](O)[C@]1(C)O` [Azithromycin], the “stability in the presence of acids” value in data set [1] was “more stable than erythromycin”.

Turning to `C[C@H]1COc2c(N3CCN(C)CC3)c(F)cc3c(=O)c(C(=O)O)cn1c23` [Levofloxacin], the I/E ratio in the data set with PMN was 4.8.

As for `COc1c(N2C[C@@H]3CCCN[C@@H]3C2)c(F)cc2c(=O)c(C(=O)O)cn(C3CC3)c12` [Moxifloxacin], the I/E ratio in the data set with PMN is on record as 12.0.

As to `CC1(C)SC2C(NC(=O)Cc3ccccc3)C(=O)N2C1C(=O)O` (stereo not shown) [Penicillin G, 3,3-Dimethyl-7-oxo-6-phenylacetylamino-4-thia-1-aza-bicyclo[3.2.0]heptane-2-carboxylic acid], the I/E ratio with PMN stood at 0.16.
